{"source": "patent US4582698A", "about": "“Process for imaging cardiac infarcts” (The Dow Chemical Company, priority 1983, dated 1986)", "key": {"[1]": {"system": "damaged cardiac tissue", "assay": "Ratio of activity in damaged vs normal cardiac tissue of rats (Table II)", "type": "in vivo, rat", "settings": "isoproterenol-damaged rats vs control rats; 60 minutes after injection", "experimental": "The heart was excised, cut open, and blotted. […] Other organs were also dissected and weighed.\nControl animals (animals not injected with isoproterenol) were also injected with several ^99m Tc complexes."}, "[2]": {"system": "infarcts", "settings": "cited from earlier work"}, "[3]": {"assay": "Tissue distribution of Tc-99m agents in rats with isoproterenol-induced heart damage (Table I)", "settings": "60 minutes after i.v. (tail vein) injection"}, "[4]": {"settings": "rat, in vivo, iv, 1 h"}, "[5]": {"settings": "in vivo; cited from earlier work"}}, "note": "Entries after “also recorded” stand apart in the source; their conditions may differ. Read-outs that look alike come from different tables or passages of the source."}
{"compound": "O.O.O=P([O-])([O-])CP(=O)([O-])[O-].[99Tc+4]", "note": "[Methylenediphosphonate, ^99m Tc-methylenediphosphonate]", "values": [{"measurement": "% Dose/gram in Damaged Heart/% Dose/gram in Normal Heart", "setting": "[1]", "result": 20.5}, {"measurement": "accumulation in infarcts", "setting": "[2]; in vivo", "result": "shown to accumulate in infarcts"}, {"measurement": "% Dose/g of Tissue (Fluid), Blood", "setting": "[3]; blood", "result": 0.051, "unit": "% Dose/g"}, {"measurement": "% Dose/g of Tissue (Fluid), Liver", "setting": "[3]; liver", "result": 0.060, "unit": "% Dose/g"}, {"measurement": "% Dose/g of Tissue (Fluid), Muscle", "setting": "[3]; muscle", "result": 0.018, "unit": "% Dose/g"}]}
{"compound": "O=P([O-])([O-])OP(=O)([O-])[O-].[99Tc]", "note": "[Pyrophosphate, ^99m Tc-pyrophosphate]", "values": [{"measurement": "% Dose/gram in Damaged Heart/% Dose/gram in Normal Heart", "setting": "[1]", "result": 21.4}, {"measurement": "% Dose/g of Tissue (Fluid), Blood", "setting": "[4]", "result": 0.182, "unit": "% Dose/g"}, {"measurement": "% Dose/g of Tissue (Fluid), Liver", "setting": "[4]", "result": 0.131, "unit": "% Dose/g"}, {"measurement": "% Dose/g of Tissue (Fluid), Muscle", "setting": "[4]", "result": 0.026, "unit": "% Dose/g"}, {"measurement": "infarct to bone ratio", "setting": "[2]; compared to other ^99m Tc bone seeking agents", "result": "relatively high"}, {"measurement": "detection of recent infarcts", "setting": "[2]; in vivo", "result": "inability to detect recent infarcts"}, {"measurement": "interference from skeletal structures in infarct imaging", "setting": "[2]; ribs and sternum / overlying skeletal structures", "result": "less interference from the ribs and sternum; also recorded: interference due to uptake in overlying skeletal structures"}, {"measurement": "blood clearance", "setting": "[5]", "result": "relatively slow"}]}
{"compound": "^99m Tc-glucoheptonate", "values": [{"measurement": "accumulation in infarcts", "setting": "[2]; in vivo", "result": "shown to accumulate in infarcts"}]}
{"compound": "^99m Tc-hydroxyethylenediphosphonate", "values": [{"measurement": "accumulation in infarcts", "setting": "[2]; in vivo", "result": "shown to accumulate in infarcts"}]}
